Measured values published in patent publication US11744860B2, “Technology for efficient activation of NKT cells” (RIKEN, priority 2016, dated 2023).

Legend:
Format in all cases: cell-based
[1] = tested on: human NKT cell line; assay: NKT cell activating action (IFN-γ production), co-culture of ligand-pulsed cells with human NKT cell line, ELISA; details: ligand 100 ng/mL; for IFN-γ production from NKT cells induced by ligand-pulsed CD14 positive cells: 48 hr pulse, 1×10^5 pulsed cells with 1×10^5 human NKT cells, 48 hr
From the text: For preparation of the cells obtained by culturing human CD14 positive cells (monocytes) immediately after separation using anti-CD14 antibody and human CD14 negative cells or human Elu-CD14 positive cells (monocytes) for 2 days with GM-CSF and NKT cell ligand RK-163 (respectively called “RK-163-pulsed human CD14 positive cell”, “RK-163-pulsed human CD14 negative cell”, “RK-163-pulsed human Elu-CD14 positive cell”), and the dendritic cells induced to differentiate in 2)-(2) by culturing for 6 days with addition of GM-CSF and IL-4 (called “RK-163-pulsed human dendritic cell”), RK-163 (bulk powder was dissolved in PBS added with DMSO and 0.5% Tween 20) was added to each cell to a final concentration of 100 ng/mL, and the cells were cultured at 37° C., 5% CO2 for 48 hr to produce “RK-163-pulsed cells”. After culturing, the recovered cells were centrifugation washed twice, and the number of viable cells after Trypan Blue staining was calculated by TC20™ Automated Cell Counter. RK-163-pulsed cells and human NKT cell line were respectively suspended in 10% fetal calf serum (Sigma, Lot No. 114K525)-added RMPI-1640 (Invitrogen) to 1×10^6/mL, each cell suspension was seeded at a cell concentration of 1×10^5/0.1 mL/well in a 96-well round-bottomed culture plate, and the cells were cultured at 37° C., 5% CO2 for 48 hr. After culturing, 200 μL of supernatant was recovered, and the produced and secreted IFN-γ was measured using a commercially available ELISA kit (BD Biosciences).
CD14 positive cells immediately after separation of anti-CD14 antibody-bound microbeads were separated, pulse-cultured in a medium containing NKT ligand RK-163 or other NKT cell ligand α-GalCer at 100 ng/mL and GM-CSF (53.3 ng/mL) for various times (0, 16, 48, 64 and 72 hr), and an influence on the activity of NKT cells to induce IFN-γ production was compared. As a result, IFN-γ production inducing activity was found from 16 hr after pulsing and high activity was found 48-72 hr later (FIG. 4, left). The recovery rate and survival rate at that time were highest at 48 hrs (FIG. 4, right). […]
Using RCAI-85 (100 ng/mL), RCAI-137 (100 ng/mL) instead of RK-163, CD14 positive cells (monocytes) isolated from human peripheral blood were pulsed for 48 hr to give each ligand-pulsed CD14 positive cell. 1×10^5 RK-163-pulsed CD14 positive cells or other ligand-pulsed CD14 positive cells were seeded in a 96 well round-bottomed plate, and cocultured with 1×10^5 human NKT cells for 48 hr in a 10% FBS-containing complete RPMI-1640 medium, and the concentration of IFN-γ in the culture medium was measured.

[2] = tested on: NCI H460 cells (human lung cancer cell line); assay: Cytotoxic activity of NKT cells stimulated with pulsed cells against NCI H460 cells
From the text: Human NKT cells were stimulated by culturing for 8-10 days with the “RK-163-pulsed human CD14 positive cell” or “RK-163-pulsed human dendritic cell” produced in the same manner as above in a mixed medium of AIM-V (50%) and RPMI-1640 (45%) and containing FCS (5%) (lot suitable for proliferation of iPS cells), sodium pyruvate, NEAA, 2-ME, IL-2 (100 U/mL) (Imunace). The mixing ratio of NKT cells and RK-163-pulsed CD14 positive cells or RK-163-pulsed dendritic cells was set to 1:1.5-5. The obtained human NKT cells were cultured for 4 hr together with NCI H460 cells (human lung cancer cell line) in an FBS (10%)-containing complete RPMI-1640 medium on a 96 well round-bottomed plate and the cytotoxic activity against NCI H460 cells was examined. The number of the target cells (NCI H460 cells) was set to 1×10^4 cells/well and the effector:target ratio was set to 3:1 and 10:1.

[3] = tested on: human NKT cell line; assay: NKT cell activating action (IFN-γ production) of RK-163-pulsed human CD14 positive cell lines; details: U937 cells, RK-163 100 ng/mL, presence or absence of GM-CSF, 2-48 hr
Experimental: Human CD14 positive cell line THP-1 cells and U937 cells were suspended in RPMI1640/10% FBS culture medium to 1-3×10^6 cells/ml, and seeded in a 24-well culture plate (Falcon) at a cell density of 1 mL/well. Simultaneously, RK-163 (bulk powder was dissolved in PBS added with DMSO and 0.5% Tween 20) was added to a final concentration 100 ng/mL, […] to give “RK-163-pulsed human CD14 positive cell line”.
iPS-CD14 positive cells were cultured for 8-48 hr in the presence of RK-163 in the same manner as for THP-1 and U937 to give “RK-163-pulsed human iPS-CD14 positive cell line”.
[…] After culturing, the recovered cells were washed twice by centrifugation, and the number of viable cells after Trypan Blue staining was calculated by TC20™ Automated Cell Counter. RK-163-pulsed cells and human NKT cell line were respectively suspended in 10% fetal bovine serum (Sigma, Lot No. 114K525)-added RMPI-1640 (Invitrogen) to 1×10^6/mL, each cell suspension was seeded at a cell concentration of 1×10^5/0.1 mL/well in a 96-well round-bottomed culture plate, and the cells were cultured at 37° C., 5% CO2 for 48 hr. After culturing, 200 μL of supernatant was recovered, and the produced and secreted IFN-γ was measured using a commercially available ELISA kit (BD Biosciences). […]

Structure (SMILES) | IFN-γ production from NKT cells induced by ligand-pulsed CD14 positive cells [1] | pulse time with high IFN-γ production inducing activity ([1]; CD14 positive cells, GM-CSF 53.3 ng/mL) | pulse time from which IFN-γ production inducing activity was found ([1]; CD14 positive cells, GM-CSF 53.3 ng/mL, times 0, 16, 48, 64, 72 hr) | cytotoxic activity induced on human NKT cells as compared to α-GalCer [2] | pulse time from which IFN-γ production inducing activity was found [3]
CCCCCCCCCCCCCCCCCCCCCCCCCC(=O)N[C@@H](CO[C@H]1O[C@H](COCC)[C@H](O)[C@H](O)[C@H]1O)[C@H](O)[C@H](O)CCCCCCCCCCCCCC [RCAI-85] | strongly induce | – | – | – | –
CCCCCCCCCCCCCCCCCCCCCCCCCC(=O)N[C@@H](CO[C@H]1O[C@H](COC(=O)NO)[C@H](O)[C@H](O)[C@H]1O)[C@H](O)[C@H](O)CCCCCCCCCCCCCC [RCAI-137] | strongly induce | – | – | – | –
CCCCCCCCCCCCCCCCCCCCCCCCCC(=O)N[C@@H](CO[C@H]1O[C@H](COC(=O)NC)[C@H](O)[C@H](O)[C@H]1O)[C@H](O)[C@H](O)CCCCCCCCCCCCCC [RK-163] | – | 48 to 72 h | ≥ 16 h | stronger | ≥ 2 h
